Legend:
[1] = molecular target: T1, SCD-1 (Homo sapiens, UniProt O00767); experiment: Human enzymatic activity of SCD-1 from microsomes of HepG2 cells (conversion of [14C] stearic acid to oleic acid, HPLC); type: biochemical; settings: microsomal fraction of HepG2 cells, 62 μM stearic acid, 20 minutes at 37° C., vs vehicle 0.1% DMSO; read-out: HSCD-1 (HEPG2) IC50
T1 construct: addition of 125 μg of microsomal fraction of HepG2 cells; host or cells: HepG2 human hepatocarcinoma cells (microsomal fraction)
T1 sequence (O00767 1-359): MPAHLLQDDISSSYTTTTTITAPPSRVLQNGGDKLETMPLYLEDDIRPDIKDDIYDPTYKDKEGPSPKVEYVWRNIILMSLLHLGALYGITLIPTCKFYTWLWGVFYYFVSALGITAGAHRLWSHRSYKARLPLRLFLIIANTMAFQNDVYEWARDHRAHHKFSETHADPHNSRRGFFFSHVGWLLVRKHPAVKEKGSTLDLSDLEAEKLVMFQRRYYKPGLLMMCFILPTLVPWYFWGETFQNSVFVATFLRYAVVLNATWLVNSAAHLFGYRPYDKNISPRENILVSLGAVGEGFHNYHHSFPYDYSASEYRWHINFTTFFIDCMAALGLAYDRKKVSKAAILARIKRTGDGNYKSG
Procedure: In vitro: Human enzymatic activity of SCD-1 from microsomes of HepG2 cells after treatment with the inhibitor compounds (% inhibition).
HepG2 cells of human hepatocarcinoma (ATCC, HB-8065) are cultured at confluence then trypsinated. The cell residue is solubilized in 10 mM Tris buffer (pH 7.4) sucrose (250 mM) DTT (1 mM) then the cells are lysed by sonication. The microsomes are obtained after centrifuging at 10,000 g for 20 minutes at 4° C. followed by centifrugation of the supernatant at 100,000 g for 60 minutes at 4° C. The residue is solubilized in 10 mM Tris buffer (pH 7.4) sucrose (250 mM) at 4° C. and the microsomal proteins are assayed and stored at −196° C. (liquid nitrogen).
The enzymatic reaction measures the conversion of stearic acid (C18:0 fatty acid) into oleic acid (C18:1 fatty acid) by SCD-1. The enzymatic reaction is initiated by the addition of 125 μg of microsomal fraction of HepG2 cells to tubes (total reaction volume of 500 μl) containing 62 μM stearic acid (45 μM stearic acid and 17 μM [^14C] stearic acid) in 100 mM phosphate buffer (pH 7.16) with 7.2 mM ATP, 0.54 mM CoA, 6 mM MgCl2, 0.8 mM NADH and the inhibitor compound or vehicle (0.1% DMSO). The tubes are incubated for 20 minutes at 37° C. then the enzymatic reaction is halted by the addition of KOH (12%) and saponification for 30 minutes at 80° C. After acidification (3N HCl), the fatty acids are extracted twice with ethyl ether, evaporated under nitrogen before being solubilized in methanol/dichloromethane (3:1). The reaction product (C18:1) is separated from the reaction substrate (C18:0) by HPLC (Perkin Elmer, C18 reverse phase column) coupled with an in-line radioactivity detector (FlowOne). Enzymatic activity is measured in picomoles of stearic acid converted to oleic acid per minute and per mg of protein. For each inhibitor compound, an IC50 value is determined, compared with the reference enzymatic activity (vehicle 0.1% DMSO). Sterculic acid is the reference inhibitor compound (Gomez F. E., Bauman D. E., Ntambi J. M., Fox B. G. Effects of sterculic acid on stearoyl-CoA desaturase in differentiating […] adipocytes. Biochem Biophys Res Commun. 300 316-326 (2003).

SMILES	IC50 [1] [nM]	melting point [°C]
Cc1ccc(C)c(OC2CCN(C(=O)Nc3ccnn(C)c3=O)CC2)c1 [Example 55, 4-(2,5-dimethyl-phenoxy)-piperidine-1-carboxylic acid (2-methyl-3-oxo-2,3-dihydro-pyridazin-4-yl)-amide]	100 to 1000	108
Cc1ccc(Cl)c(OC2CCN(C(=O)Nc3ccnn(C)c3=O)CC2)c1 [Example 56, 4-(2-chloro-5-methyl-phenoxy)-piperidine-1-carboxylic acid (2-methyl-3-oxo-2,3-dihydro-pyridazin-4-yl)-amide]	100 to 1000	133
Cc1ccc(C(C)C)cc1OC1CCN(C(=O)Nc2ccnn(C)c2=O)CC1 [Example 57, 4-(2-methyl-5-isopropyl-phenoxy)-pipéridine-1-carboxylic acid (2-methyl-3-oxo-2,3-dihydro-pyridazin-4-yl)-amide]	10 to 100	104
Cn1nccc(NC(=O)N2CCC(Oc3cccc(C(F)(F)F)c3)CC2)c1=O [Example 58, 4-(5-trifluoromethyl-phenoxy)-piperidine-1-carboxylic acid (2-methyl-3-oxo-2,3-dihydro-pyridazin-4-yl)-amide]	10 to 100	101
Cc1ccccc1OC1CCN(C(=O)Nc2ccnn(C)c2=O)CC1 [Example 59, 4-(2-methyl-phenoxy)-piperidine-1-carboxylic acid (2-methyl-3-oxo-2,3-dihydro-pyridazin-4-yl)-amide]	~1000	124
Cn1nccc(NC(=O)N2CCC(Oc3ccc(F)c(C(F)(F)F)c3)CC2)c1=O [Example 60, 4-(4-fluoro-5-trifluoromethyl-phenoxy)-piperidine-1-carboxylic acid (2-methyl-3-oxo-2,3-dihydro-pyridazin-4-yl)-amide]	100 to 1000	127
Cn1nccc(NC(=O)N2CCC(Oc3cc(F)ccc3C(F)(F)F)CC2)c1=O [Example 61, 4-(5-fluoro-2-trifluoromethyl-phenoxy)-piperidine-1-carboxylic acid (2-methyl-3-oxo-2,3-dihydro-pyridazin-4-yl)-amide]	10 to 100	145
Cn1nccc(NC(=O)N2CCC(Oc3cc(Cl)ccc3Cl)CC2)c1=O [Example 62, 4-(2,5-dichloro-phenoxy)-piperidine-1-carboxylic acid (2-methyl-3-oxo-2,3-dihydro-pyridazin-4-yl)-amide]	30	125
Cn1nccc(NC(=O)N2CCC(Oc3cc(Br)ccc3Cl)CC2)c1=O [Example 63, 4-(2-chloro-5-bromo-phenoxy)-piperidine-1-carboxylic acid (2-methyl-3-oxo-2,3-dihydro-pyridazin-4-yl)-amide]	30	124
Cn1nccc(NC(=O)N2CCC(Oc3ccccc3Cl)CC2)c1=O [Example 64, 4-(2-chloro-phenoxy)-piperidine-1-carboxylic acid (2-methyl-3-oxo-2,3-dihydro-pyridazin-4-yl)-amide]	300 to 1000	124
Cn1nccc(NC(=O)N2CCC(Oc3ccc(Cl)c(Cl)c3)CC2)c1=O [Example 65, 4-(3,4-dichloro-phenoxy)-piperidine-1-carboxylic acid (2-methyl-3-oxo-2,3-dihydro-pyridazin-4-yl)-amide]	1000	154
Cn1nccc(NC(=O)N2CCC(Oc3ccc(Cl)cc3Cl)CC2)c1=O [Example 66, 4-(2,4-dichloro-phenoxy)-piperidine-1-carboxylic acid (2-methyl-3-oxo-2,3-dihydro-pyridazin-4-yl)-amide]	100 to 1000	140
Cn1nccc(NC(=O)N2CCC(Oc3cc(F)cc(C(F)(F)F)c3)CC2)c1=O [Example 67, 4-(3-fluoro-5-trifluoromethyl-phenoxy)-piperidine-1-carboxylic acid (2-methyl-3-oxo-2,3-dihydro-pyridazin-4-yl)-amide]	300	115
Cc1ccc(F)cc1OC1CCN(C(=O)Nc2ccnn(C)c2=O)CC1 [Example 68, 4-(5-fluoro-2-methyl-phenoxy)-piperidine-1-carboxylic acid (2-methyl-3-oxo-2,3-dihydro-pyridazin-4-yl)-amide]	100 to 1000	142
Cn1nccc(NC(=O)N2CCC(Oc3cc(F)ccc3F)CC2)c1=O [Example 69, 4-(2,5-difluoro-phenoxy)-piperidine-1-carboxylic acid (2-methyl-3-oxo-2,3-dihydro-pyridazin-4-yl)-amide]	100 to 1000	138
Cn1nccc(NC(=O)N2CCC(Oc3cc(Cl)c(Cl)cc3Cl)CC2)c1=O [Example 70, 4-(2,4,5-trichloro-phenoxy)-piperidine-1-carboxylic acid (2-methyl-3-oxo-2,3-dihydro-pyridazin-4-yl)-amide]	100 to 1000	154
Cn1nccc(NC(=O)N2CCC(Oc3cc(F)c(F)cc3Br)CC2)c1=O [Example 71, 4-(2-bromo-4,5-difluoro-phenoxy)-piperidine-1-carboxylic acid (2-methyl-3-oxo-2,3-dihydro-pyridazin-4-yl)-amide]	10 to 100	143
O=C(Nc1ccn[nH]c1=O)N1CCC(Oc2cc(C(F)(F)F)ccc2Cl)CC1 [Example 72, 4-(2-Chloro-5-trifluoromethyl-phenoxy)-piperidine-1-carboxylic acid (3-oxo-2,3-dihydro-pyridazin-4-yl)-amide]	10	158
Cn1ncc(NC(=O)N2CCC(Oc3cc(C(F)(F)F)ccc3Cl)CC2)cc1=O [Example 73, 4-(2-Chloro-5-trifluoromethyl-phenoxy)-piperidine-1-carboxylic acid (1-methyl-6-oxo-1,6-dihydro-pyridazin-4-yl)-amide]	10 to 100	136
Cn1nc(NC(=O)N2CCC(Oc3cc(C(F)(F)F)ccc3Cl)CC2)ccc1=O [Example 74, 4-(2-Chloro-5-trifluoromethyl-phenoxy)-piperidine-1-carboxylic acid (1-methyl-6-oxo-1,6-dihydro-pyridazin-3-yl)-amide]	10 to 100	155

Reference: US8946225B2, “Derivatives of 2H pyridazin-3-ones, their preparation and their use as SCD-1 inhibitors” (Pierre Fabre Medicament, priority 2009, dated 2015)
